According to PubChem BioAssay (NCI):
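Cultured in 96-well plates, cells were exposed to test compound for 48 hours across five concentrations. The concentration for full growth arrest is given as TGI.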

Key:
Assay in all cases: NCI-60 cell line screen, 48 h
786-0 renal = test system: 786-0 renal
A498 renal = test system: A498 renal
A549 NSCLC = test system: A549 NSCLC
ACHN renal = test system: ACHN renal
BT-549 breast = test system: BT-549 breast
CAKI-1 renal = test system: CAKI-1 renal
CCRF-CEM leukemia = test system: CCRF-CEM leukemia
COLO 205 colon = test system: COLO 205 colon
DU-145 prostate = test system: DU-145 prostate
EKVX NSCLC = test system: EKVX NSCLC
HCC-2998 colon = test system: HCC-2998 colon
HCT-116 colon = test system: HCT-116 colon
HCT-15 colon = test system: HCT-15 colon
HL-60(TB) leukemia = test system: HL-60(TB) leukemia
HOP-62 NSCLC = test system: HOP-62 NSCLC
HOP-92 NSCLC = test system: HOP-92 NSCLC
HS 578T breast = test system: HS 578T breast
HT29 colon = test system: HT29 colon
IGROV1 ovarian = test system: IGROV1 ovarian
K-562 leukemia = test system: K-562 leukemia
KM12 colon = test system: KM12 colon
LOX IMVI melanoma = test system: LOX IMVI melanoma
M14 melanoma = test system: M14 melanoma
MCF7 breast = test system: MCF7 breast
MDA-MB-231 breast = test system: MDA-MB-231 breast
MDA-MB-435 = test system: MDA-MB-435
MDA-N = test system: MDA-N
MOLT-4 leukemia = test system: MOLT-4 leukemia
NCI-H226 lung = test system: NCI-H226 lung
NCI-H23 lung = test system: NCI-H23 lung
NCI-H460 lung = test system: NCI-H460 lung
NCI-H522 lung = test system: NCI-H522 lung
NCI/ADR-RES ovarian = test system: NCI/ADR-RES ovarian
OVCAR-3 ovarian = test system: OVCAR-3 ovarian
OVCAR-4 ovarian = test system: OVCAR-4 ovarian
OVCAR-5 ovarian = test system: OVCAR-5 ovarian
OVCAR-8 ovarian = test system: OVCAR-8 ovarian
PC-3 prostate = test system: PC-3 prostate
RPMI-8226 leukemia = test system: RPMI-8226 leukemia
RXF 393 renal = test system: RXF 393 renal
SF-268 CNS = test system: SF-268 CNS
SF-295 CNS = test system: SF-295 CNS
SK-MEL-2 melanoma = test system: SK-MEL-2 melanoma
SK-MEL-28 melanoma = test system: SK-MEL-28 melanoma
SK-MEL-5 melanoma = test system: SK-MEL-5 melanoma
SK-OV-3 ovarian = test system: SK-OV-3 ovarian
SN12C renal = test system: SN12C renal
SNB-19 CNS = test system: SNB-19 CNS
SNB-75 CNS = test system: SNB-75 CNS
SR leukemia = test system: SR leukemia
SW-620 colon = test system: SW-620 colon
T-47D breast = test system: T-47D breast
TK-10 renal = test system: TK-10 renal
U251 CNS = test system: U251 CNS
UACC-257 melanoma = test system: UACC-257 melanoma
UACC-62 melanoma = test system: UACC-62 melanoma
UO-31 renal = test system: UO-31 renal

Measured: TGI

CCN(CC)CCN1C=CC(C)C(C(=O)O)C1C(N)=O (configuration not stated)
> 100 µM: all assays above
